Experimental data as given in article PMC9412534, “Diindolylmethane Derivatives: New Selective Blockers for T-Type Calcium Channels” (Membranes, 2022).

Tested on: voltage-gated calcium channels (VGCC)
Assay: VGCC FLIPR cell-based assays, all channels (overall observation)
Parameters: species or system human
Description: HEK 293 cells stably expressing CaV3.2 or CaV3.3 were seeded into 384-well black wall clear bottom plates (Corning) at a density of 30,000 cells per well. Transiently transfected CaV3.1HEK293 T cells were seeded into 384-well black wall clear bottom plates at a density of 60,000 cells per well. Once the cells reached 90–95% confluence after 24 h, the media were removed from the wells and replaced with 20 μL of 10% calcium 4 dye (Molecular Devices, Sunnyvale, CA, USA) in HBSS-HEPES (containing 5 mM KCl, 10 mM HEPES, 140 mM NaCl, 10 mM glucose, and 0.5 mM CaCl2, pH 7.4) with 0.1% bovine serum albumin (BSA). The cells were incubated for 30 min at 37 °C in the presence of 5% carbon dioxide. Each well on the reagent plates for the first addition contained 15 μL different concentrations of compounds dissolved in HBSS-HEPES containing 0.1% BSA and <0.5% DMSO and was incubated for 20 min after loaded. Positive and negative controls contained 15 μL of HBSS-HEPES (0.1% BSA) alone. The plates were placed in the FLIPR^TETRA (Molecular Devices, Sunnyvale, CA, USA) programmed to measure maximum fluorescence intensity following a second addition of the agonist 5 mM CaCl2. The fluorescence readings were recorded and converted as described previously, and HBSS-HEPES (0.1% BSA) was used in the second addition as a negative control.
SH-SY5Y cells were seeded into 384-well black wall clear bottom plates at a density of 15,000 cells per well, resulting in 90–95% confluence after 24 h. The media were then removed from the wells and replaced with 20 μL of 10% calcium 4 dye (Molecular Devices) in physiological salt solution (PSS) (containing 5.9 mM KCl, 1.4 mM MgCl2, 10 mM HEPES, 1.2 mM NaH2 PO4, 5 mM NaHCO3, 140 mM NaCl, 11.5 mM glucose, and 1.8 mM CaCl2, pH 7.4) with 0.1% BSA. As reported, for N-type calcium channel FLIPR assays the cells were pre-incubated with 10 µM nifedipine added in the dye to ensure full inhibition of L-type calcium responses. For L-type calcium channel FLIPR assays, the cells were pre-incubated with 1 µM CVID added in the dye to ensure full inhibition of N-type calcium responses. Positive control on the first reagent plate contained 15 μL of PSS (0.1% BSA), whereas PSS (0.1% BSA) containing 1 µM CVID and 10 µM nifedipine (final concentration) was used as a negative control. The fluorescence readings were recorded and converted as described previously, and agonist containing 90 mM KCl + 5 mM CaCl2 was used in the second addition.

O=C(c1c[nH]c2cc(Br)ccc12)c1c[nH]c2cc(Br)ccc12 [IV]
inhibition of all the Ca2+ responses: poor inhibition
